Measurements from paper PMC6892925, “Development of Novel Silyl Cyanocinnamic Acid Derivatives as Metabolic Plasticity Inhibitors for Cancer Treatment” (Scientific Reports, 2019).

What was measured:
[1] = molecular target: T1, MCT1 (Rattus norvegicus, UniProt P53987); test: MCT1 inhibition assay via L-[14C]-lactate uptake in RBE4 cells; type: cell-based; conditions: L-[14C]-lactate uptake, MCT1 expressing RBE4 cell line; average ± SEM of three separate experiments; read-out: MCT1 IC50
T1 construct: using an L-[^14C]-lactate study on the MCT1 expressing RBE4 cell line; endogenous in cells; host or cells: RBE4 (rat brain endothelial 4) cells, a gift from F. Roux
T1 sequence (P53987 1-494): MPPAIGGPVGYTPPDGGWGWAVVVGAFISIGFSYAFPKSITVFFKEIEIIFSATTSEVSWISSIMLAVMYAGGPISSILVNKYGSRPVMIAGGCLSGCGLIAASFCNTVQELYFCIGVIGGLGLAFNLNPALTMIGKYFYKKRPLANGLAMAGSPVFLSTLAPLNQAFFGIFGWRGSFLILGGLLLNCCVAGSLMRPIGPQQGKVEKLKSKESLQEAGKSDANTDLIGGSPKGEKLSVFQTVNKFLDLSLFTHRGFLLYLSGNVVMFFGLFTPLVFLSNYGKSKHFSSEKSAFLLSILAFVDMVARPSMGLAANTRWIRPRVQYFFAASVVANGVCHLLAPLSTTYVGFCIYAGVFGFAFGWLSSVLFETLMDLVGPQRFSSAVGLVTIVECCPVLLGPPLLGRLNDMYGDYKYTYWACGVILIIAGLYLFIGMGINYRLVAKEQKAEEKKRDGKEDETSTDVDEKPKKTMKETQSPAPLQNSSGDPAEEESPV

[2] = test system: MCF7, 4T1, WiDr, and MDA-MB-231 cell lines; test: MTT cell proliferation inhibition, all cell lines tested; type: cell-based; conditions: read-out: MTT IC50 values, span over all the cell lines tested
Procedure: Cell proliferation inhibition was evaluated using 3-(4,5-dimethylthiazol-2-yl)-2,5-diphenyl tetrazolium bromide (MTT) assay as reported previously[19].

[3] = test system: MCT1 expressing WiDr cell line; test: Seahorse XFe96 glycolysis stress test (ECAR); type: cell-based, human; conditions: 30 µM, vs DMSO control
Procedure: (§1) Candidate compounds 2a and 2b were evaluated for their effect on glycolysis, glycolytic capacity and glycolytic reserve. This assay measures extracellular acidification rate (ECAR) which is directly correlated with the rate of glycolysis. The ECAR for both cell lines in the presence of the test compounds can be seen above (Fig. 4B,C). In this assay, cells were initially starved of glucose to reduce their ECAR. Upon addition of glucose, a rise in ECAR was observed proportional to the rate of glycolysis in each cell line. An increase in basal levels of glycolysis in cells treated with test compounds compared to the controls represents a shift toward dependency on glycolysis for ATP production. […] Glycolytic capacity is the maximum rate of glycolysis the cell can attain in the absence of OxPhos as an ATP source.
(§2) 20,000 cells/well were plated in 96-well Seahorse plates (Agilent, part no. 101085-004) and incubated 16–24 hours at 37 °C at 5% CO2. Flux pack sensors (Agilent, part no. 102416-100) were hydrated with XF calibrant solution (Agilent, part no. 100840-000) overnight at 37 °C in a non-CO2 incubator. The serum free assay media was prepared from Seahorse base medium (Agilent, part no. 102353-100) enriched with glutamine (1 mM) and sodium pyruvate (1 mM). The pH of the media was adjusted to 7.4. For glycolysis stress test the serum free assay media was used. For the mitochondrial stress test glucose (10 mM) was added to make an enriched serum free assay media. For both stress tests an 8X stock concentration of test compounds in their respective media was prepared for microplate injections in port A. Stock solutions of glucose (90 mM), oligomycin (10 μM), and 2-deoxyglucose (Chem Impex, 550 mM) were prepared such that their final working concentrations are 10 mM, 1 μM and 50 mM, respectively, for glycolysis stress test. For mitochondrial stress test, stock solutions of oligomycin (9 µM), FCCP (2.5–10 µM, cell line dependent), rotenone + antimycin A (5.5 µM) were prepared such that their final concentrations were 1 µM, 0.25–1 µM, and 0.5 µM, respectively in the enriched test media. Under glycolytic stress test, the cells were treated with test compounds, followed by the addition of glucose, oligomycin and 2-deoxyglucose at 14.29, 33.8, 53.35, 72.87 minutes, respectively. Under mitochondrial stress test, cells were treated with test compounds, followed by the addition of oligomycin, FCCP, and rotenone + antimycin A, at 14.29, 33.8, 53.35, 72.87 minutes, respectively. Extracellular acidification rates (ECAR) and oxygen consumption rates (OCR) were recorded in real-time for glycolysis and mitochondrial stress tests, respectively, using a Seahorse XFe96® analyzer (Agilent). The parameters related to glycolytic and mitochondrial functions were calculated utilizing the Wave 2.4.0 software (Agilent). ATP rate assay experiment was performed using manufactures (Agilent) protocol, and respective mitochondrial and glycolytic ATP rates were normalized to protein (BCA assay) and calculated using Wave 2.4.0 software.

[4] = test system: MCT4 expressing MDA-MB-231 cell line; test: Seahorse XFe96 glycolysis stress test (ECAR); type: cell-based, human; conditions: 30 µM, MDA-MB-231, vs DMSO control
Procedure: as §1, §2

[5] = test system: MCT1 expressing WiDr tumor xenograft; test: In vivo tumor growth inhibition study, WiDr tumor xenograft; design: species or system mouse; conditions: 25 mg/kg i.p., 16 days; for tumor growth suppression: vs control group
Procedure: Based on in vitro cell proliferation inhibition, MCT1 inhibition, and effects on glycolysis/mitochondrial function, we advanced candidate compounds 2a and 2b for translational in vivo safety and efficacy studies. […] Next, an MCT1 expressing WiDr tumor xenograft model was chosen to evaluate the efficacy of 2a and 2b. After tumors were inoculated, they were allowed to reach ~150 mm^3 volume, and mice were randomly divided into three groups. Group-1 was administered 25 mg/kg (i.p.) of compound 2a, group-2 was administered with 25 mg/kg (i.p.) of 2b, and group-3 was designated as control group and given an injection of vehicle. Treatment was continued for 16 days, and tumor volumes were recorded. […] During the two-week treatment period, there was no significant loss of body weights in mice between treated and control groups. […] At the end of the study, all the tumors were resected, and the tumor mass was weighed (Fig. 6D).
WiDr cells (5 × 10^6 cells) were suspended in 1:1 mixture of matrigel (Corning, cat. no. 356237) and PBS and injected subcutaneously into the right flank of female athymic nude mice (Charles River). The mice were randomly assigned into 3 groups (n = 6 mice per group). Vertical and horizontal diameters of tumors were measured every two- or three-days using calipers. The tumor volumes were calculated assuming a perfect sphere using the formula V = ab^2/2 where ‘a’ is the longer diameter of the tumor and ‘b’ is the shorter diameter of the tumor. Treatment was initiated when the tumor volume reached 100 mm^3. The study was terminated after sixteen days and tumors were then resected and weighed. All procedures performed using this method were approved by the University of Minnesota Institutional Animal Care and Use Committee (IACUC, protocol no. 1612-34444A) and are in accordance with all guidelines and regulations.

Structure (SMILES)	IC50 [1] [µM]	IC50 [2] [µM]	basal glycolysis (ECAR) [3]	glycolytic reserve (ECAR) [3]	basal glycolysis (ECAR) [4]	glycolytic capacity (ECAR) [4]	glycolytic reserve (ECAR) [4]	tumor volume vs control group [5]	tumor growth suppression [5] [%]
CC(C)(C)[Si](Oc1ccc(/C=C(\C#N)C(=O)O)cc1)(c1ccccc1)c1ccccc1 [2a]	0.408 ± 0.005	6 to 93	significantly increased	significant decrease	significantly increased	significantly reduced	significant decrease	significant suppression in tumor volume	36
CC(C)(C)[Si](OCCOc1ccc(/C=C(\C#N)C(=O)O)cc1)(c1ccccc1)c1ccccc1 [2b]	0.097 ± 0.007	6 to 93	significantly increased	significant decrease	significantly increased	significantly reduced	significant decrease	–	28
